Source: patent US12448376B2, “Phenothiazine ferroptosis inhibitor, preparation method therefor and application thereof” (CHENGDU HENGHAO INNOVATIVE SCIENCE AND TECHNOLOGY CO., LTD., priority 2019, dated 2025)

Columns and labels:
[1] = system: middle cerebral artery occlusion (MCAO) cerebral stroke model in rat; experiment: Rat MCAO cerebral stroke model, single administration, TTC staining; format: in vivo, SD rats; conditions: for Infarct area weight: tail vein injection within 10 min of reperfusion; for Infarct area weight / Infarct size: 24 h after reperfusion; for Inhibition rate of cerebral infarction / Infarct size: tail vein injection; for Inhibition rate of cerebral infarction: calculated from infarct size against model control; for Infarct size: infarct tissue weight as percentage of whole brain
Protocol: Through the middle cerebral artery occlusion (MCAO) cerebral stroke model (also known as cerebral ischemia model) in rat, the therapeutic effects of the compounds of the present disclosure at different doses and single administration on ischemic cerebral stroke in SD rats were studied. […] The ischemic rats were placed at room temperature to keep their body temperature at 37° C. After 90 min, the suture was pulled out for reperfusion. […] After 24 h of reperfusion, the animals were scored by NSS to evaluate neurological function, and then the animals were dissected to remove the brain for TTC staining. By determining the size of cerebral infarction and calculating the inhibition rate, the therapeutic effects of the test compounds on ischemic cerebral stroke in rats were evaluated comprehensively. […] The percentage of infarct tissue weight in the whole brain was used as the infarct size (%), and the inhibition rate (%) of each drug treatment group was calculated based on the infarct size. The inhibition rate was calculated with the following formula: [formula] 2.

human hERG ion channel = target: T1, human hERG ion channel (Homo sapiens, UniProt Q12809); experiment: hERG whole-cell patch clamp in HEK293 cells; format: cell-based; conditions: for IC50: hERG tail current, HEK293 cells, 0.3-30 μM, room temperature
T1 construct: expressed in transfected cells; host or cells: HEK293 cells stably expressing hERG
T1 sequence (Q12809 whole entry): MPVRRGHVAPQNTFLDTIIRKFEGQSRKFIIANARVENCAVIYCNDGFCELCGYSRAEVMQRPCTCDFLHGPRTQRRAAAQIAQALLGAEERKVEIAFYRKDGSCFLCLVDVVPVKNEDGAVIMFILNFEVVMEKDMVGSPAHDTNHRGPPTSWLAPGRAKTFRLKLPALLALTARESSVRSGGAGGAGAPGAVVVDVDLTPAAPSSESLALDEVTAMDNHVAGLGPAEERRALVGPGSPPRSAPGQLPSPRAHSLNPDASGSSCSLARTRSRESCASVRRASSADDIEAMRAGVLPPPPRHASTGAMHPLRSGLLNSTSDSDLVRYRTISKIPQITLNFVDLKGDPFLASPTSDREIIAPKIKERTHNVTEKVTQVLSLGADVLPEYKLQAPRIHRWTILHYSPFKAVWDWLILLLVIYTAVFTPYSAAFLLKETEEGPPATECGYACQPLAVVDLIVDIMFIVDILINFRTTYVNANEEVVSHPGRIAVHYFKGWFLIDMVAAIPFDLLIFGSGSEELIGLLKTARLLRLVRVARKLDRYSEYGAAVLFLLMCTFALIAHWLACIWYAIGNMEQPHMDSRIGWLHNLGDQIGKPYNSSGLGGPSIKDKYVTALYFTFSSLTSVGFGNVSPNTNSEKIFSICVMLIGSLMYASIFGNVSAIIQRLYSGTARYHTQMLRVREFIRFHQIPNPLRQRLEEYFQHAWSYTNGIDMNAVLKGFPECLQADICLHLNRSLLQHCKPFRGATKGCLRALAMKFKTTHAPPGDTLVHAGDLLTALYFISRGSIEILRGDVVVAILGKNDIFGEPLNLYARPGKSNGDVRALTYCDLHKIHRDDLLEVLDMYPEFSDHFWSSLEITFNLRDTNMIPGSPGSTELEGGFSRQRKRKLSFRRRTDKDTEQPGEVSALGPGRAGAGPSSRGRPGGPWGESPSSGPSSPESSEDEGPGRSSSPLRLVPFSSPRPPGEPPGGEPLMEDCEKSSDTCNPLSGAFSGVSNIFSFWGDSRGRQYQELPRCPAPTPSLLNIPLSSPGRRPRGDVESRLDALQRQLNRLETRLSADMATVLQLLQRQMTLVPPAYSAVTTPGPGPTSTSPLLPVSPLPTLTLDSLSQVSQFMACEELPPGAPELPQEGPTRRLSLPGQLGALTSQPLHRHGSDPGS
Protocol: Effect of Compounds of the Present Disclosure on Human hERG Ion Channel Expressed in HEK293 Cells at Steady State Determined by Patch Clamp
The hERG ion channel steady-state expressing HEK293 cells were transferred to a perfusion tank and perfused with extracellular fluid at room temperature. Each cell was used as a control. All test compounds were dissolved by shaking with dimethyl sulfoxide and prepared as serial concentrations of 0.3 μM, 1 μM, 3 μM, 10 μM and 30 μM. The test compounds were perfused using a perfusion system utilizing their own gravity. At least two cells were tested for each concentration. After the current was stable (or 5 min), the current magnitude changes before and after the compound was used were compared to calculate the blocking effect of the compound. Test electrodes were pulled with PC-10. Whole-cell patch clamp was used to record, with noise filtered at one-fifth of the sampling frequency. […] This procedure was repeated every 15 seconds. hERG tail currents were pure hERG currents. After the current was stabilized, the administration was performed by continuous extracellular perfusion from low concentration to high concentration. Starting from a low concentration, perfusion was continued until the drug effect was stable, and then perfusion of the next concentration was performed.
Stimulus delivery and signal acquisition were performed by the Patch Master software. The signal was amplified with a patch clamp amplifier with a filtering of 10 KHz. Fit Master, EXCEL, Graph Pad Prism and SPSS 21.0 were used for further data analysis and curve fitting. In data processing, when judging the blocking effect on hERG the peak value of the tail current and its baseline were corrected. The effect of each compound at different concentrations was expressed by the inhibition rate of the tail current. Inhibition rate %=100×(peak value of tail current before administration-peak value of tail current after administration)/peak value of tail current before administration
IC50 values were fitted by the Hill equation: […]

fibrosarcoma cell line = experiment: Ferroptosis screening model, MTT cell viability assay with Erastin induction; format: cell-based
Protocol: In this example, in order to study the inhibitor of ferroptosis, a screening model for ferroptosis was constructed in house, and the details are as follows:
The screening model for ferroptosis mainly used the MTT cell viability assay. First, the fibrosarcoma cell line was cultured in a dish, and the cells in the logarithmic growth phase were seeded in a 96-well plate in specific numbers (3000-10000 cells/well), 100 μL per well, and then cultured in an incubator at 37° C. and 5% CO2 to allow the cells to adhere. After 24 h, 100 μL of compounds at certain concentrations prepared in the indicated medium and the ferroptosis inducer Erastin (final concentration of 10 μM) were added, and wells in triplicate were set up for each compound to ensure the accuracy of the results. A negative control group, positive control group (5 μM of ferrostain-1), blank control group and solvent control group were also set. After dosing, cells were placed in the incubator and cultured for 72 h. On the day of the MTT test, MTT test solution (5 mg/mL MTT solution dissolved in physiological saline, stored at 4° C. in the dark) was pre-prepared, and 20 μL was added to each well. Cells were placed in the incubator and cultured for another 2-4 h. Then, 50 μL of 20% SDS solution (dissolved in MiliiQ water, added with 1% concentrated hydrochloric acid) was added to each well, and cells were placed in the incubator overnight. The next day, the absorbance value at 570 nm was detected with a microplate reader to calculate the inhibition rate of the drug on ferroptosis. Generally, the absorbance value of the control group should be between 0.8-1.2 as a normal value.
The curve of inhibition rate change was fitted using Graph Pad Prism 5 software to obtain EC50.

[2] = Hemolysis reaction (statement only, no method)
[3] = 72 h, inhibition of ferroptosis induced by Erastin 10 μM, MTT; average of three tests
[4] = inhibition of ferroptosis induced by Erastin 10 μM, 72 h, MTT; average of three tests
[5] = summary of Table 1, compared with positive drug ferrostain-1

CC(c1ccc(N2CCN(C)CC2)cc1)c1ccc2c(c1)Nc1ccccc1S2 (stereo not drawn) [Comparative Compound 1, reference compound]
Infarct area weight ([1]; 2.5 mg/kg): 0.14 ± 0.07 g | Inhibition rate of cerebral infarction ([1]; 2.5 mg/kg): 19.0% | Infarct area weight ([1]; 5 mg/kg): 0.11 ± 0.05 g | Inhibition rate of cerebral infarction ([1]; 5 mg/kg): 33.6%

C=C(c1ccc(S(=O)(=O)NC2CCN(C)CC2)cc1)c1ccc2c(c1)Nc1ccccc1S2 [Comparative Compound 2, reference compound]
IC50 (human hERG ion channel): 710 nM

C=C(c1ccc2c(c1)Nc1ccccc1S2)c1cnc2c(cnn2CC2CCOCC2)c1 [Compound 2]
EC50 (fibrosarcoma cell line; [3]): 38 nM

C=C(c1ccc2c(c1)Nc1ccccc1S2)c1cnc2c(cnn2CC2CCN(C(=O)OC(C)(C)C)CC2)c1 [Compound 4]
EC50 (fibrosarcoma cell line; [3]): 76 nM

C=C(c1ccc2c(c1)Nc1ccccc1S2)c1ccc2c(C(=O)NCCN3CCOCC3)c[nH]c2c1 [Compound 6]
EC50 (fibrosarcoma cell line; [3]): 15 nM

C=C(c1ccc2c(c1)Nc1ccccc1S2)c1cn2ccnc2c(N2CCOCC2)n1 [Compound 7]
EC50 (fibrosarcoma cell line; [3]): 24 nM

C=C(c1ccc2c(c1)Nc1ccccc1S2)c1cnc2c(cnn2C2CN(C(=O)OC(C)(C)C)C2)c1 [Compound 8]
EC50 (fibrosarcoma cell line; [4]): 55 nM

C=C(c1ccc2c(c1)Nc1ccccc1S2)c1ccc2cc(C(=O)NCCN3CCOCC3)[nH]c2c1 [Compound 9]
EC50 (fibrosarcoma cell line; [3]): 12 nM

C=C(c1ccc2c(c1)Nc1ccccc1S2)c1ccc2c(C=O)c[nH]c2c1 [Compound 10]
EC50 (fibrosarcoma cell line; [3]): 15 nM

C=C(c1ccc2c(c1)Nc1ccccc1S2)c1ccc2c(c1)SCC(=O)N2 [Compound 11]
EC50 (fibrosarcoma cell line; [3]): 33 nM

C=C(c1ccc2c(c1)Nc1ccccc1S2)c1ccc2c(c1)OCCO2 [Compound 13]
EC50 (fibrosarcoma cell line; [3]): 37 nM

C=C(c1ccc2c(c1)Nc1ccccc1S2)c1ccc2ncccc2c1 [Compound 14]
Infarct area weight ([1]; 2.5 mg/kg): 0.15 ± 0.07 g | Inhibition rate of cerebral infarction ([1]; 2.5 mg/kg): 14.0% | Infarct size ([1]; 2.5 mg/kg): 12.11 ± 5.69% | Infarct area weight ([1]; 5 mg/kg): 0.12 ± 0.05 g | Inhibition rate of cerebral infarction ([1]; 5 mg/kg): 29.3% | Infarct size ([1]; 5 mg/kg): 9.95 ± 4.69% | range of necrosis of brain tissue lesions (in words) ([1]; high and low dose administration groups): reduce the range of necrosis of brain tissue lesions | EC50 (fibrosarcoma cell line; [3]): 6 nM | inhibitory effects on ferroptosis (in words) (fibrosarcoma cell line; [5]): excellent inhibitory effects on ferroptosis, significantly better than the positive drug ferrostain-1 | effect on the human hERG ion channel (in words) (human hERG ion channel; HEK293 cells in a steady state): no significant effect | IC50 (human hERG ion channel): > 30000 nM | improvement of cardiac safety compared with compound 59 of CN111574474A (human hERG ion channel; ratio of hERG IC50 values): about 50 times | hemolysis reaction (in words) [2]: no hemolysis reaction

C=C(c1ccc2c(c1)Nc1ccccc1S2)c1ccc2c(c1)OC(F)(F)O2 [Compound 15]
EC50 (fibrosarcoma cell line; [3]): 10 nM

C=C(c1ccc2c(c1)CCN2C(C)=O)c1ccc2c(c1)Nc1ccccc1S2 [Compound 16]
EC50 (fibrosarcoma cell line; [3]): 10 nM

C=C(c1cnc2c(c1)CCN2)c1ccc2c(c1)Nc1ccccc1S2 [Compound 17]
EC50 (fibrosarcoma cell line; [3]): 89 nM

C=C(c1ccc2c(c1)Nc1ccccc1S2)c1cnc2c(cnn2C2CCOC2)c1 (stereo not drawn) [Compound 19]
EC50 (fibrosarcoma cell line; [4]): 13 nM

C=C(c1ccc2c(c1)Nc1ccccc1S2)c1cnc2c(cnn2C2CCN(C)CC2)c1 [Compound 20]
EC50 (fibrosarcoma cell line; [3]): 0.2 nM | inhibitory effects on ferroptosis (in words) (fibrosarcoma cell line; [5]): excellent inhibitory effects on ferroptosis, significantly better than the positive drug ferrostain-1

C=C(c1ccc2c(c1)Nc1ccccc1S2)c1cnc2nc(C(=O)NCCN(C)C)cn2c1 [Compound 22]
EC50 (fibrosarcoma cell line; [3]): 14 nM

C=C(c1ccc2c(c1)Nc1ccccc1S2)c1cn2cc(C(=O)NC3CCOCC3)nc2cn1 [Compound 23]
EC50 (fibrosarcoma cell line; [3]): 67 nM

C=C(c1ccc2c(c1)Nc1ccccc1S2)c1cn2cc(C(=O)NCC3CCOCC3)nc2cn1 [Compound 24]
EC50 (fibrosarcoma cell line; [3]): 56 nM

C=C(c1ccc2c(c1)Nc1ccccc1S2)c1cn2cc(C(=O)N[C@H](C)c3cccc4ccccc34)nc2cn1 [Compound 25]
EC50 (fibrosarcoma cell line; [3]): 55 nM

C=C(c1ccc2c(c1)Nc1ccccc1S2)c1cn2cc(C(=O)N[C@H](C)c3ccccc3)nc2cn1 [Compound 26]
EC50 (fibrosarcoma cell line; [3]): 76 nM

C=C(c1ccc2c(c1)Nc1ccccc1S2)c1cnc2c(cnn2CCOC)c1 [Compound 27]
EC50 (fibrosarcoma cell line; [3]): 73 nM

C=C(c1ccc2c(c1)Nc1ccccc1S2)c1cnc2c(cnn2C2CCN(C(=O)OC(C)(C)C)CC2)c1 [Compound 29]
EC50 (fibrosarcoma cell line; [3]): 29 nM

C=C(c1ccc2c(c1)Nc1ccccc1S2)c1cnc2c(cnn2C2CN(C(=O)OC(C)(C)C)C2)c1 [Compound 30]
EC50 (fibrosarcoma cell line; [3]): 92 nM

C=C(c1ccc2c(c1)Nc1ccccc1S2)c1cnc2[nH]ncc2c1 [Compound 31]
EC50 (fibrosarcoma cell line; [3]): 11 nM

C=C(c1ccc2c(c1)Nc1ccccc1S2)c1cnc2c(cnn2C2CCOC2)c1 (stereo not drawn) [Compound 32]
EC50 (fibrosarcoma cell line; [4]): 50 nM

C=C(c1ccc2c(c1)Nc1ccccc1S2)c1cnc2c(cnn2CC)c1 [Compound 33]
EC50 (fibrosarcoma cell line; [3]): 67 nM

C=C(c1ccc2c(c1)Nc1ccccc1S2)c1cnc2c(ccn2C)c1 [Compound 34]
EC50 (fibrosarcoma cell line; [3]): 42 nM

C=C(c1ccc2c(c1)Nc1ccccc1S2)c1cnc2sccc2c1 [Compound 35]
EC50 (fibrosarcoma cell line; [3]): 74 nM

C=C(c1ccc2c(c1)Nc1ccccc1S2)c1cnc2c(cnn2C2CCNCC2)c1 [Compound 36]
EC50 (fibrosarcoma cell line; [3]): 16 nM

CCOC(=O)c1ccc(NC2CCCCC2)c(N)c1 [Ferrostain-1, Ferrostatin-1, reference compound]
EC50 (fibrosarcoma cell line; 72 h): 60 nM

CCCCC1OC(=O)c2ccccc21 (stereo not drawn) [Positive drug, butylphthalide, reference compound]
Infarct area weight ([1]; 5 mg/kg): 0.18 ± 0.09 g | Inhibition rate of cerebral infarction ([1]; 5 mg/kg): 1.1% | Infarct size ([1]; 5 mg/kg): 13.93 ± 6.97%
